# Assay results published in paper PMC8879119, “α-Glucosidase Inhibitory Activity and Anti-Adipogenic Effect of Compounds from Dendrobium delacourii” (Molecules, 2022).
# Read-outs that look alike come from different tables or passages of the source.
# Assays:
# [1] = target: T1, α-glucosidase (Saccharomyces cerevisiae, UniProt P53341); assay: biochemical
# T1 construct: purchased Sigma-Aldrich (St. Louis, MO, USA)
# Procedure: In this study, each compound was initially tested at 100 μg/mL.
# (§1) Mass spectra were recorded on a Bruker micro TOF mass spectrometer (ESI-MS). NMR spectra were recorded on a Bruker Avance DPX-300FT-NMR spectrometer or a Bruker Avance III HD 500 NMR spectrometer. Vacuum-liquid column chromatography (VLC) and column chromatography (CC) were performed on silica gel 60 (Merck, Kieselgel 60, 70–320 mesh), silica gel 60 (Merck, Kieselgel 60, 230–400 mesh) (Darmstadt, Germany), and Sephadex LH-20 (25–100 μm, Pharmacia Fine Chemical Co. Ltd.) (Piscataway, NJ, USA). […] Mouse embryonic preadipocyte 3T3-L1 cells were acquired from the American Type Culture Collection (ATCC, Manassas, VA, USA). Dulbecco’s modified Eagle medium (DMEM), fetal bovine serum (FBS), penicillin/streptomycin, and L-glutamine were obtained from Gibco (Gaithersburg, MA, USA). Yeast alpha-glucosidase enzyme, p-nitrophenol-α-D-glucopyranoside, isobutylmethylxanthine, dexamethasone, MTT (methyl-thiazolyl-diphenyl-tetrazolium bromide), Hoechst33342, propidium iodide, dimethylsulfoxide (DMSO), and oil red O were purchased from Sigma-Aldrich (St. Louis, MO, USA). Insulin was obtained from Himedia (Mumbai, India). The radio-immunoprecipitation assay (RIPA) buffer, chemiluminescent substrates, and the bicinchoninic acid (BCA) protein assay kit were from Thermo Scientific (Rockford, IL, USA), and the nitrocellulose membranes were from Bio-Rad Laboratories (Hercules, CA, USA). All primary and secondary antibodies were purchased from Cell Signaling Technology (Danvers, MA, USA). Oxyresveratrol was provided by Prof. Kittisak Likhitwitayawuid.
# The assay was based on the inhibition in the sample of α-glucosidase enzyme, which can release p-nitrophenol (PNP) from p-nitrophenyl-α-D-glucoside (PNPG) by hydrolysis. […] For IC50 determination, twofold serial dilution was performed for each sample. Each experiment was accomplished in triplicate. Data are expressed as mean ± SD.
# [2] = tested on: 3T3-L1 cells; assay: adipocyte differentiation / lipid accumulation by oil red O staining; assay type: cell-based, Mouse; settings: for IC50: Mus musculus, 3T3-L1, 0–50 µM, oil red O staining, 3T3-L1 cells; for reduction in oil red O staining: differentiated 3T3-L1 cells
# Procedure: Mouse embryonic preadipocyte 3T3-L1 cells were cultured in DMEM containing 10% FBS, 100 units/mL of penicillin/streptomycin, and 2 mmol/L of L-glutamine under humidified conditions of 5% CO2 at 37 °C until 70–80% confluence was reached. For differentiation into adipocyte, preadipocyte 3T3-L1 cells were incubated with differentiation media composed of 10% FBS, 0.5 mM isobutylmethylxanthine, 1 μM dexamethasone, and 5 µg/mL insulin in DMEM with or without test compound for 2 days. Then, the differentiation media was replaced with culture media containing 5 µg/mL of insulin. After further incubation for 2 days, the cells were maintained in complete DMEM, which was changed every 2 days until adipocytes containing lipid droplets were observed under microscope.
# The lipid droplets presenting in differentiated adipocytes were detected via oil red O staining. After the differentiation process, 3T3-L1 cells were fixed with 10% formalin for 45 min and further incubated with oil red O solution at room temperature for 1 h. After washing with 60% isopropanol for three times, oil red O-stained cells were captured using a Nikon Ts2 inverted optical microscope (Tokyo, Japan). For quantification, cellular oil red O was extracted using absolute isopropanol for measurement of OD at 570 nm by microplate reader (Anthros, Durham, NC, USA). The percentage of oil red O staining was calculated relative to the total protein content determined by BCA assay.
# [3] = tested on: 3T3-L1 cells; assay: MTT viability assay in preadipocytes; assay type: cell-based, Mouse; settings: 20 µM, 48 h
# Procedure: To evaluate the effect of D. delacourii extracts on cell viability, 3T3-L1 preadipocytes were seeded into 96-well plates at density of 2 × 10^3 cells/well and allowed to attach overnight at 37 °C. Then, the cells were further cultured with extracts (5 μg/mL), compounds (20 μM), or left untreated for 48 h before adding of 0.45 mg/mL MTT solution to assess cell viability. After incubation for 3 h at 37 °C and kept from light, the optical density (OD) of the purple formazan product dissolved in DMSO was measured at 570 nm using a microplate reader (Anthros, Durham, NC, USA). The relative OD ratio of treated to non-treated cells was presented as percentage cell viability.
# [4] = tested on: 3T3-L1 cells; assay: cell death detection by Hoechst33342/propidium iodide costaining; assay type: cell-based; settings: 20 µM, 48 h
# Procedure: The cytotoxicity of D. delacourii extracts was confirmed via cell death detection using costaining of Hoechst33342 and propidium iodide. After 48 h incubation with indicated treatment, the cells were further incubated with nuclear staining solution containing 2 μg/mL of Hoechst33342 and 1 μg/mL of propidium iodide for 30 min. The mode of cell death was observed under a fluorescence microscope (Olympus IX51 with DP70, Olympus Corp., Shinjuku-ku, Tokyo, Japan).
# [5] = tested on: p-GSK3β/GSK3β; assay: Western blot of p-GSK3β/GSK3β in differentiating 3T3-L1 cells; assay type: cell-based, Mouse; settings: 20 µM, 38–48 h
# Excerpt: Due to the expression of adipogenic transcription factors also modulated via Akt/GSK3β [46, 47, 48], the alteration of the p-GSK3β/GSK3β level was additionally examined in densifloral B-treated 3T3-L1 cells. The phosphorylation by p-Akt results in the inactivation of the GSK3β degradation complex following the initiation of targeted gene expression.
# (§2) After the indicated treatment, 3T3-L1 cells were washed with phosphate-buffered saline (PBS, pH 7.4), then the cell membranes were broken using RIPA buffer supplemented with a protease inhibitor cocktail. After incubation on ice for 45 min, the cell lysates were centrifuged at 12,000 rpm at 4 °C for 15 min to collect the clear supernatant containing cellular protein, which was measured for total protein content using a BCA assay kit. The total protein (30 µg) from each sample was loaded and separated onto 10% sodium dodecyl sulfate-polyacrylamide gel electrophoresis (SDS-PAGE). […] The reactive protein signals exposed with chemiluminescent substrates were captured and quantified using Chemiluminescent ImageQuant LAS 4000 (GE Healthcare Bio-Sciences AB, Björkgatan, Uppsala, Sweden).
# [6] = tested on: p-AMPKα; assay: Western blot of p-AMPKα in differentiating 3T3-L1 cells; assay type: cell-based, Mouse; settings: 20 µM, 38 h and 48 h
# Excerpt: (§3) Recent reports indicate that the downregulation of PPARγ and C/EBPα are correlated with the activation of AMPKα/β and ACC [43]. […] The increased expression level of p-ACC/ACC (Figure 5b), p-AMPKα/AMPKα (Figure 5c), and p-AMPKβ1/AMPKβ1/2 (Figure 5f) was correlated with suppression of PPARγ and C/EBPα protein expression (Figure 4e) as well as lipid accumulation in differentiated 3T3-L1 cells (Figure 4a). The results presented in this study correspond with the evidence of the stimulation of AMPK and ACC protein being associated with the inhibition of 3T3-L1 adipocyte differentiation.
# as §2
# [7] = tested on: PPARγ; assay: Western blot of PPARγ in differentiating 3T3-L1 cells; assay type: cell-based, Mouse; settings: 20 µM, 38 h and 48 h, versus untreated control
# Procedure: (§4) Adipogenesis involves a network of transcription factors that contribute to adipocyte differentiation and lipid accumulation. Although the adipogenic gene CCAAT-enhancer-binding protein beta (C/EBPβ) is expressed soon after exposure to the adipogenic inducers, the upregulation of PPARγ and C/EBPα is acquired after 36–48 h of the induction. In this regard, the translational level of PPARγ and C/EBPα was examined to elucidate the anti-adipogenic mechanism in preadipocyte 3T3-L1 cells cultured with 20 µM densifloral B (3) at both early (38 h) and late (48 h) stage. Western blot analysis indicated the prolong expression of PPARγ and C/EBPα, the adipogenic transcription factors, in 3T3-L1 cells from early until late stage of adipogenic process. […]
# as §2, with “kit.” for “kit. The total protein (30 µg) from each sample was loaded and separated onto 10% sodium dodecyl sulfate-polyacrylamide gel electrophoresis (SDS-PAGE).”
# [8] = tested on: C/EBPα; assay: Western blot of C/EBPα in differentiating 3T3-L1 cells; assay type: cell-based, Mouse; settings: 20 µM, 38 h and 48 h, versus untreated control
# Procedure: as §4
# as §2, with “kit.” for “kit. The total protein (30 µg) from each sample was loaded and separated onto 10% sodium dodecyl sulfate-polyacrylamide gel electrophoresis (SDS-PAGE).”
# [9] = tested on: p-ACC; assay: Western blot of p-ACC in differentiating 3T3-L1 cells; assay type: cell-based, Mouse; settings: 20 µM, 38 h and 48 h
# Excerpt: as §3, §2
# [10] = tested on: p-AMPKβ1; assay: Western blot of p-AMPKβ1 in differentiating 3T3-L1 cells; assay type: cell-based, Mouse; settings: 20 µM, 38 h and 48 h
# Excerpt: as §3, §2
# [11] = tested on: p-Akt; assay: Western blot of p-Akt in differentiating 3T3-L1 cells; assay type: cell-based, Mouse; settings: 20 µM, 38–48 h
# Excerpt: as §3, §2
# [12] = target: T1, α-glucosidase; assay: biochemical; assay type: biochemical; settings: for type of enzyme inhibition: Lineweaver–Burk plots; for Ki: from secondary plot of slopes versus inhibitor concentration, read-out: Ki (inhibitor constant)
# Procedure: The experiment was performed by using Lineweaver–Burk plots of the reciprocal of velocity (1/V) against the reciprocal of substrate concentration (1/[S]) (Figure 2). […] A secondary plot of each compound was then constructed to evaluate the inhibition constant (Ki).
# as §1
# The kinetic study of enzyme inhibition was analyzed by the double reciprocal Lineweaver–Burk plot (1/V versus 1/[S]). […] The reaction was monitored every 5 min for a total time of 25 min and measured at 405 nm by a microplate reader. Each experiment was performed in triplicate. The Ki value was estimated by constructing a secondary plot which is plotted by the slopes of the double-reciprocal lines versus inhibitor concentration.
# [13] = read-out: α-Glucosidase inhibitory activity IC50
# [14] = inhibitor dose 12 μM, substrate 0.25-2.0 mM
# T1 sequence (P53341 whole entry): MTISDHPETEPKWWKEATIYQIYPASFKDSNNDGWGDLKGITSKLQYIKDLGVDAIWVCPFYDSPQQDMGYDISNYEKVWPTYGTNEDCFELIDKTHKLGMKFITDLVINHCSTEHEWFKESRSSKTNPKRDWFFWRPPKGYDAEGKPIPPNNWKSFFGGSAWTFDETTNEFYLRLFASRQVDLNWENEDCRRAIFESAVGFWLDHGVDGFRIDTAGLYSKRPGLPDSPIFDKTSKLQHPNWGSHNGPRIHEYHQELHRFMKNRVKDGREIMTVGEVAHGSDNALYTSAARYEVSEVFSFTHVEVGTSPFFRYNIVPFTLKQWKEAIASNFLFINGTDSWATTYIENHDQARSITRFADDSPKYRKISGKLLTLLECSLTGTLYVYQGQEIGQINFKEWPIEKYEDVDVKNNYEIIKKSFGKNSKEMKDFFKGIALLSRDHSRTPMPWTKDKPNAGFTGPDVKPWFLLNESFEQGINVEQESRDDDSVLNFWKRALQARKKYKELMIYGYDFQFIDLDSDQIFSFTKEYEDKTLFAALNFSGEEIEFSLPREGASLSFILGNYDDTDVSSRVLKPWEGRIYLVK
compound,measurement,setting,value
"COc1cc(O)cc2ccc3cccc(O)c3c12 [Moscatin (4), moscatin]",IC50,[1]; [13],390 ± 9.8 µM
"Oc1cc(O)cc(/C=C/c2ccc(O)cc2O)c1 [oxyresveratrol, reference compound]",IC50,[2],21.1 ± 1.5 µM
same,oil red O staining percentage compared with control (in words),[2]; at 20 µM,lower oil red O staining percentage
same,viability / cytotoxicity in 3T3-L1 cells,[3],no change
same,cell death,[4],no change
"COC1=CC(=O)c2c(ccc3cc(O)ccc23)C1=O [Densifloral B (3), densifloral B]",p-GSK3β/GSK3β expression level,[5],significantly lessened
same,IC50,[2],14.8 ± 1.6 µM
same,reduction in oil red O staining,[2]; at 20 µM,~65.2%
same,phosphorylated AMPKα (p-AMPKα),[6],upregulated
same,expression level of PPARγ,[7],restrained
same,viability / cytotoxicity in 3T3-L1 cells,[3],no cytotoxicity
same,expression level of C/EBPα,[8],restrained
same,phosphorylated ACC (p-ACC),[9],upregulated
same,phosphorylated AMPKβ1 (p-AMPKβ1),[10],upregulated
same,activated Akt (p-Akt),[11],suppressed
"COc1cc(O)cc(CCc2ccc(O)c(OC)c2)c1 [Gigantol (6), gigantol]",IC50,[1]; [13],191 ± 6.8 µM
"COc1cc(O)c2c(c1)CCc1cc(O)ccc1-2 [Lusianthridin (8), lusianthridin]",IC50,[1]; [13],195 ± 9.6 µM
"COc1cc(O)c2c(c1-c1c(OC)cc(O)c3c1CCc1cc(O)ccc1-3)CCc1cc(O)ccc1-2 [4,4′,7,7′-tetrahydroxy-2,2′-dimethoxy-9,9′,10,10′-tetrahydro-1,1′-biphenanthrene]",IC50,[1],18.4 ± 3.4 µM
"COc1cc(O)c2c(c1)CCc1cc(Oc3c(OC)cc(O)c4c3CCc3cc(O)ccc3-4)ccc1-2 [Phoyunnanin E (10), phoyunnanin E]",type of enzyme inhibition,[12],non-competitive
same,Ki,[12],5.89 µM
same,Vmax,[12]; [14],0.049 ∆OD/min
same,Vmax,"[12]; inhibitor dose 22 μM, substrate 0.25-2.0 mM",0.024 ∆OD/min
same,IC50,[1]; [13],8.9 ± 0.8 µM
"COC1=CC(=O)C2=C(CCc3cc(O)ccc32)C1=O [Ephemeranthoquinone (2), ephemeranthoquinone]",reduction in oil red O staining,[2]; at 20 µM,approximately 64.7%
same,viability / cytotoxicity in 3T3-L1 cells,[3],significantly decreased viability
"C[C@H]1O[C@H](O[C@H]2[C@H](O)[C@@H](O)[C@@H](O[C@H]3[C@H](O)[C@@H](O)C(O)O[C@@H]3CO)O[C@@H]2CO)[C@H](O)[C@@H](O)[C@@H]1N[C@H]1C=C(CO)[C@@H](O)[C@H](O)[C@H]1O (some centres unmarked) [Acarbose, acarbose, reference compound]",type of enzyme inhibition,[12],competitive type of inhibition
same,Km,[12]; inhibitor dose 465 μM,4.17 mM
same,Vmax,[12]; inhibitor dose 465 μM,0.10 ∆OD/min
same,Km,[12]; inhibitor dose 930 μM,6.47 mM
same,Vmax,[12]; inhibitor dose 930 μM,0.11 ∆OD/min
"COc1cc(O)c2c(c1)CCc1cc(O)c(-c3c(OC)cc(O)c4c3CCc3cc(O)ccc3-4)cc1-2 [Phoyunnanin C (11), phoyunnanin C]",type of enzyme inhibition,[12],non-competitive
same,Ki,[12],5.97 µM
same,Vmax,[12]; [14],0.049 ∆OD/min
same,Vmax,"[12]; inhibitor dose 24 μM, substrate 0.25-2.0 mM",0.023 ∆OD/min
same,IC50,[1]; [13],12.6 ± 0.9 µM
